One test concerns MCF-7 cells. To be noted: cited from earlier work.
For test [1] the following is noted: literature (Dávalos, 2004); cited from earlier work.
The subject of test [2] is hormone dependent mammary cancer cells MCF-7. In words: MCF-7 proliferation in hormone-free serum, 13 days incubation. It counts as cell-based. The protocol:
Methanol extracts of raw and 5-day malted NG-Perla black beans were obtained by the methods described in Examples 2 and 8, respectively, and used to test their effects on hormone dependent mammary cancer cell proliferation (MCF-7).
Since isoflavones found in black beans may show estrogenic activity, and MCF-7 are hormone dependent mammary cancer cells; tests were conducted in hormone-free serum to discard the possibility of enhanced proliferation instead of inhibition. […] Thus, MCF-7 cells were first cultured with purified commercial standards of genistein (Indofine Chemical Company, Hillsborough, N.J.) and genistin (Sigma-Aldrich Chem. Co., St. Louis, Mo.) as positive controls with the aim of testing their effects on proliferation of this cancer cell line.

In test [3] the test system is Human hormone dependent mammary cancer cells (MCF-7). In words: MCF-7 growth inhibition bioassay of quercetin and flavonol-rich black bean extract. It counts as cell-based. As to conditions: quercetin alone. The source says: Human hormone dependent mammary cancer cells (MCF-7) were used to conduct bioassays to test growth inhibitory effects of commercially available quercetin alone and in presence of other flavonols and phytochemicals found in black bean extracts described in Table 2.

In the case of `O=c1c(O)c(-c2cc(O)c(O)c(O)c2)oc2cc(O)cc(O)c12` [myricetin], the “inhibition of MCF-7 cells” value with MCF-7 cells (regular serum conditions) is “do not inhibit”.

For the compound `O=C(O)/C=C/c1ccc(O)c(O)c1` [caffeic acid], in test [1], the antioxidant value was 6.63 TE.

On to `O=c1c(-c2ccc(O)cc2)coc2cc(O)cc(O)c12` [genistein], for which the IC50 in test [2] (Homo sapiens, MCF7, 312 h, 13 days incubation, estimated by curve fit to FIG. 12, read-out: concentration required to lower the cell population doublings from 6 to 3 (50% inhibition)) is 18.5 µM.

As to `O=c1c(O)c(-c2ccc(O)c(O)c2)oc2cc(O)cc(O)c12` [Quercetin], in test [3], the “inhibitory effect on MCF-7 growth” value was “did not have any inhibitory effect”. In the test with MCF-7 cells (regular serum conditions (Rodgers, 1998), read-out: concentration needed to inhibit 50% of MCF-7 cancer cells), the IC50 was no less than 200 µM. For the same compound, the antioxidant value in test [1] is 10.5 TE.

Consider `COc1ccc(O)c(C(C)(C)C)c1` [BHA, butylated hydroxyanisole], for which the antioxidant value in test [1] was 2.43 TE.

For `O=c1c(-c2ccc(O)cc2)coc2cc(O[C@@H]3O[C@H](CO)[C@@H](O)[C@H](O)[C@H]3O)cc(O)c12` [genistin], the “proliferation inhibition of MCF-7” value in test [2] (even at concentrations higher than 20 μM) was “did not show proliferation inhibition”.

The values are drawn from patent US7763292B2, “Cancer cell growth inhibition by black bean (Phaseolus vulgaris L) extracts” (Instituto Technologico y de Estudios Superiores de Monterrey, priority 2004, dated 2010).
